In ChEMBL document CHEMBL1149848, “Prenylated flavonoid derivatives from the bark of Erythrina addisoniae” (J Nat Prod, 2008) one finds IC50 and Activity data, which are given here for five molecules.

The source made the active and inactive calls. No cut-off for these calls is given here.

What all share (assay type): functional, cell-based
Assay [1] is described as follows: Cytotoxicity against rat H4IIE cells after 24 hrs by MTT assay. A general note: Tetrazolium dyes change colour on reduction, which living cells bring about.
For assay [2], the system named is H4IIE. The assay is described as follows: Cytotoxicity against rat H4IIE cells assessed as caspase-3/7 activation after 24 hrs by Apo-ONE assay.
Assay [3] concerns H4IIE. The assay is described as follows: Cytotoxicity against rat H4IIE cells assessed as nuclear fragmentation after 24 hrs by Hoechst staining.

Usually IC50 stands for the concentration at which inhibition is half-maximal. Low values mean greater potency, high ones weaker potency. `COc1c(CC=C(C)C)cc([C@@H]2CC(=O)c3c(O)cc(O)cc3O2)cc1CC=C(C)C` gave an IC50 in assay [1] of 5 µM.
In the case of `C=C(C)C(O)Cc1cc([C@@H]2CC(=O)c3c(O)cc(O)cc3O2)cc(CC=C(C)C)c1O` (some centres not stated) [ABYSSINOFLAVANONE VII], the IC50 in assay [1] was 3.5 µM. The outcome in the assay with H4IIE [2] and in the assay on H4IIE [3] was Active.
In assay [1], `CC(C)=CCc1cc([C@@H]2CC(=O)c3ccc(O)cc3O2)cc(CC=C(C)C)c1O` [ABYSSINONE IV] registered an IC50 of 15 µM.
Turning to `O=C1C[C@@H](c2ccc(O)cc2)Oc2cc(O)ccc21` [LIQUIRTIGENIN], the concentration for half-maximal inhibition (IC50) in assay [1] is > 100 µM.
Turning to `O=C1C[C@@H](c2ccc(O)cc2)Oc2cc(O)cc(O)c21` [NARINGENIN], in assay [1], the IC50 was > 100 µM.
